What was measured:
Format in all cases: physicochemical
[1] = Solution stability in 0.1 N HCl, pH 4.5 buffer and pH 6.8 buffer at 25° C. and 37° C., HPLC; settings: summary of the Examples
Description: Solution stability: A stock solution of compound (1.0 mg/mL) in MeOH was diluted with 0.1 N HCl, pH 4.5 buffer (acetate) and pH 6.8 buffer to reach constant ionic strength of 0.15 M and the same final concentration (50 μg/mL, 40% MeOH).
A stock solution of 1b and 3b (1.0 mg/mL) in MeOH was diluted with pH 6.8 buffer to reach constant ionic strength of 0.15M and the same final concentration (25 μg/mL, 40% […]).
The solutions were stored at 25° C. and 37° C.

[2] = Solid stability at 40° C./0% RH (closed) and 40° C./75% RH (open), HPLC; settings: for 0 day % remaining / 5 day % remaining / 10 day % remaining: solid
Description: (§1) Solid stability: 5 mg of 2a was weighed into scintillation vials sealed properly and stored at 40° C./0% RH(closed), 40° C./75% RH(open) under dark conditions to avoid the effect of light on stability. Samples were collected at day 0, 5 and 10 and analyzed by HPLC.
Solid stability: 5 mg of compound was weighed into vials sealed properly and stored at 40° C./0% RH (closed), 40° C./75% RH (open) under dark conditions to avoid the effect of light. Samples were analyzed by HPLC at days 0, 7, and 21.
as §1, with “stability of compound 1a:” for “stability:”, “compound were accurately” for “of 2a was”, “condition” for “conditions”, “should be” for “were”, “10 days” for “10”

[3] = DVS (Dynamic Vapor Sorption) moisture sorption/desorption, hygroscopicity classification; settings: 25 °C; for Change In Mass (%) - ref, Desorption / Change In Mass (%) - ref, Sorption / Change In Mass (%) - ref, Hysteresis: Cycle 1
Description: DVS (Dynamic Vapor Sorption): Around 10-20 mg of samples were used to test its moisture sorption/desorption profiles at 25° C. under 0%˜95%˜0% relative humidity (RH) cycle using dm/dt: 0.01%/min equilibrium and a measurement step of 5% RH.
Hygroscopicity Classification: Typical %-moisture gain as a function of increased RH was determined by DVS. Samples went through a dynamic test isothermally at 25° C. The test was divided into 2 processes, one was absorption process, the other was desorption process. RH ranged from 0% to 95% with 5% RH for each step, and when dm/dt<=0.01%, it was assumed the water sorption/desorption equilibrium is reached.

[4] = TGA (Thermal Gravimetric Analysis) weight loss; settings: for TGA weight loss (in words): room temperature to 120° C.
Description: TGA (Thermal Gravimetric Analysis): Samples of compounds (4˜6 mg) were weighed into the pan, and heated under nitrogen purge using a ramp rate of 20° C./min over the range of 30° C.˜350° C.

Stability compared with other polymorphs (summary) [1]: most stable of the polymorphs
Solid-state stability (HPLC) ([2]; 40° C./0% RH (closed) and 40° C./75% RH (open), dark, up to 10 days): substantially stable
0 day % remaining ([2]; 40° C. (0% RH, closed)): 99.65%
5 day % remaining ([2]; 40° C. (0% RH, closed)): 101.65%
10 day % remaining ([2]; 40° C. (0% RH, closed)): 100.85%
0 day % remaining ([2]; 40° C./75% RH (open)): 99.65%
5 day % remaining ([2]; 40° C./75% RH (open)): 100.66%
10 day % remaining ([2]; 40° C./75% RH (open)): 101.31%
Hygroscopicity classification by DVS [3]: non-hygroscopic
Change In Mass (%) - ref, Desorption ([3]; Target RH 0.0 %): −0.00505%
Change In Mass (%) - ref, Sorption ([3]; Target RH 0.0 %): 0.00011%
Change In Mass (%) - ref, Desorption ([3]; Target RH 5.0 %): −0.0028%
Change In Mass (%) - ref, Hysteresis ([3]; Target RH 5.0 %): −0.00426%
Change In Mass (%) - ref, Sorption ([3]; Target RH 5.0 %): 0.00146%
Change In Mass (%) - ref, Desorption ([3]; Target RH 10.0 %): −0.00101%
Change In Mass (%) - ref, Hysteresis ([3]; Target RH 10.0 %): −0.0046%
Change In Mass (%) - ref, Sorption ([3]; Target RH 10.0 %): 0.00359%
Change In Mass (%) - ref, Desorption ([3]; Target RH 15.0 %): 0.00000%
Change In Mass (%) - ref, Hysteresis ([3]; Target RH 15.0 %): −0.00527%
Change In Mass (%) - ref, Sorption ([3]; Target RH 15.0 %): 0.00527%
Change In Mass (%) - ref, Desorption ([3]; Target RH 20.0 %): 0.00123%
Change In Mass (%) - ref, Hysteresis ([3]; Target RH 20.0 %): −0.0055%
Change In Mass (%) - ref, Sorption ([3]; Target RH 20.0 %): 0.00673%
Change In Mass (%) - ref, Desorption ([3]; Target RH 25.0 %): 0.00247%
Change In Mass (%) - ref, Hysteresis ([3]; Target RH 25.0 %): −0.00505%
Change In Mass (%) - ref, Sorption ([3]; Target RH 25.0 %): 0.00752%
Change In Mass (%) - ref, Desorption ([3]; Target RH 30.0 %): 0.00292%
Change In Mass (%) - ref, Hysteresis ([3]; Target RH 30.0 %): −0.00527%
Change In Mass (%) - ref, Sorption ([3]; Target RH 30.0 %): 0.00819%
Change In Mass (%) - ref, Desorption ([3]; Target RH 35.0 %): 0.00393%
Change In Mass (%) - ref, Hysteresis ([3]; Target RH 35.0 %): −0.00449%
Change In Mass (%) - ref, Sorption ([3]; Target RH 35.0 %): 0.00841%
Change In Mass (%) - ref, Desorption ([3]; Target RH 40.0 %): 0.0055%
Change In Mass (%) - ref, Hysteresis ([3]; Target RH 40.0 %): −0.00314%
Change In Mass (%) - ref, Sorption ([3]; Target RH 40.0 %): 0.00864%
Change In Mass (%) - ref, Desorption ([3]; Target RH 45.0 %): 0.00673%
Change In Mass (%) - ref, Hysteresis ([3]; Target RH 45.0 %): −0.00202%
Change In Mass (%) - ref, Sorption ([3]; Target RH 45.0 %): 0.00875%
Change In Mass (%) - ref, Desorption ([3]; Target RH 50.0 %): 0.00763%
Change In Mass (%) - ref, Hysteresis ([3]; Target RH 50.0 %): −0.00191%
Change In Mass (%) - ref, Sorption ([3]; Target RH 50.0 %): 0.00954%
Change In Mass (%) - ref, Desorption ([3]; Target RH 55.0 %): 0.00853%
Change In Mass (%) - ref, Hysteresis ([3]; Target RH 55.0 %): −0.00123%
Change In Mass (%) - ref, Sorption ([3]; Target RH 55.0 %): 0.00976%
Change In Mass (%) - ref, Desorption ([3]; Target RH 60.0 %): 0.00909%
Change In Mass (%) - ref, Hysteresis ([3]; Target RH 60.0 %): −0.0009%
Change In Mass (%) - ref, Sorption ([3]; Target RH 60.0 %): 0.00998%
Change In Mass (%) - ref, Desorption ([3]; Target RH 65.0 %): 0.00954%
Change In Mass (%) - ref, Hysteresis ([3]; Target RH 65.0 %): −0.00056%
Change In Mass (%) - ref, Sorption ([3]; Target RH 65.0 %): 0.0101%
Change In Mass (%) - ref, Desorption ([3]; Target RH 70.0 %): 0.01066%
Change In Mass (%) - ref, Hysteresis ([3]; Target RH 70.0 %): 0.00000%
Change In Mass (%) - ref, Sorption ([3]; Target RH 70.0 %): 0.01066%
Change In Mass (%) - ref, Desorption ([3]; Target RH 75.0 %): 0.01234%
Change In Mass (%) - ref, Hysteresis ([3]; Target RH 75.0 %): 0.00056%
Change In Mass (%) - ref, Sorption ([3]; Target RH 75.0 %): 0.01178%
Change In Mass (%) - ref, Desorption ([3]; Target RH 80.0 %): 0.01324%
Change In Mass (%) - ref, Hysteresis ([3]; Target RH 80.0 %): 0.00034%
Change In Mass (%) - ref, Sorption ([3]; Target RH 80.0 %): 0.0129%
Change In Mass (%) - ref, Desorption ([3]; Target RH 85.0 %): 0.01481%
Change In Mass (%) - ref, Hysteresis ([3]; Target RH 85.0 %): 0.0009%
Change In Mass (%) - ref, Sorption ([3]; Target RH 85.0 %): 0.01391%
Change In Mass (%) - ref, Desorption ([3]; Target RH 90.0 %): 0.01773%
Change In Mass (%) - ref, Hysteresis ([3]; Target RH 90.0 %): 0.00146%
Change In Mass (%) - ref, Sorption ([3]; Target RH 90.0 %): 0.01627%
Change In Mass (%) - ref, Desorption ([3]; Target RH 95.0 %): 0.02076%
Change In Mass (%) - ref, Sorption ([3]; Target RH 95.0 %): 0.02076%
moisture picked up (DVS) ([3]; at 95% RH): about 0.02%
Temperature until which there is no weight loss ([4]; DSC and TGA): about 150 °C
TGA weight loss (in words) [4]: almost no weight loss
TGA weight loss (in words) ([4]; listed as Hydrochloride salt of compound 1a): almost no weight loss
SMILES: COc1ccc2c(c1)CCN1Cc3c(ccc(OC)c3OS(=O)(=O)c3cccc(F)c3)C[C@H]21 [Compound 2a]
